Laboratory results taken from US8435939B2, “Polypeptide anti-HIV agent containing the same” (priority 2000, dated 2013).
Where a SMILES comes first, the peptide text is derived from it. Bridges are numbered along the chain shown (N, C = ends). [ ]: non-standard residue; d: D form. 2Nal = N[C@@H](Cc1ccc2ccccc2c1)C(=O)O; Cit = NC(=O)NCCC[C@H](N)C(=O)O

What was measured:
Assay type in all cases: cell-based
[1] = system: virus-uninfected MT-4 cells; assay: Cytotoxicity Test I: virus-uninfected MT-4 cells, MTT method; conditions: for cytotoxicity in words, compared with conventional T134/T140: conclusion drawn from Table 3; for SI: CC50 (Test I)/EC50: selective index, MT-4 CC50 over anti-HIV EC50
Description: (§1) HIV-1 (IIIB) strain obtained from MOLT/HIV-1 (IIIB) cell previously infected by HIV-1 was used. The polypeptide of the present invention was added to MT-4 CD4^+ T cells infected by HIV in various kinds of concentrations, and a number of living cells after culturing at 37° C. for 5 days was determined by using a 3′-(4,5-dimethylthiazol-2-yl)-2,5-diphenyltetrazolinium bromide (MTT) method. Anti-HIV activity is shown by a concentration (EC50 value), where MT-4 cell death by HIV infection is inhibited by 50%. Cytotoxicity of the peptide according to the present invention was shown by a 50% survival concentration (Test I: CC50 value) by culturing virus-uninfected MT-4 cells with the polypeptide according to the present invention in various concentrations, and determining a number of living cells by the MTT method. Moreover, a number of living cells of human peripheral blood mononuclear cells (monocyte) (PBMC) was determined by trypan blue dyeing method, and shown by a 50% survival concentration (Test II: CC50 value). Respective ratios of the CC50 value and the EC50 value were shown as a selective index (SI). Obtained values were summarized in Table 3 using the conventionally known polypeptides T134 and T140, and an anti-HIV compound: 3′-azido-2′,3′-dideoxythymidine (AZT) used as a medicine as a control anti-HIV agent.

[2] = as above; conditions: human, MT-4 cells (virus-uninfected); virus-uninfected MT-4 cells, MTT method; read-out: CC50 (Test I), 50% survival concentration
Description: as §1

HIV-1 (IIIB) strain = assay: Anti-HIV activity: inhibition of MT-4 cell death by HIV infection (MTT method); conditions: for EC50: MT-4 CD4+ T cells infected by HIV-1 (IIIB), 37° C., 5 days, MTT, average of at least three measurements, read-out: EC50 (concentration where MT-4 cell death by HIV infection is inhibited by 50%)
Description: as §1

[3] = system: human peripheral blood mononuclear cells (PBMC); assay: Cytotoxicity Test II: human PBMC, trypan blue dyeing method; conditions: selective index, PBMC CC50 over anti-HIV EC50
[4] = as above; conditions: human PBMC, trypan blue dyeing method; read-out: CC50 (Test II), 50% survival concentration

Compound	cytotoxicity in words, compared with conventional T134/T140 [1]	SI: CC50 (Test I)/EC50 [1]	CC50 [2] [µM]	EC50 (HIV-1 (IIIB) strain) [µM]	SI: CC50 (Test II)/EC50 [3]	CC50 [4] [µM]	anti-HIV activity in words, compared with T140 (HIV-1 (IIIB) strain; conclusion drawn from Table 3)
N=C(N)NCCC[C@H](NC(=O)[C@@H]1CSSC[C@H](NC(=O)[C@H](Cc2ccc3ccccc3c2)NC(=O)[C@H](CCCNC(=N)N)NC(=O)[C@@H](N)CCCNC(=N)N)C(=O)N[C@@H](Cc2ccc(O)cc2)C(=O)N[C@@H](CCCNC(N)=O)C(=O)N[C@@H](CCCCN)C(=O)N[C@H](CCCCN)C(=O)N2CCC[C@H]2C(=O)N[C@@H](Cc2ccc(O)cc2)C(=O)N[C@@H](CCCNC(=N)N)C(=O)N[C@@H](CCCNC(N)=O)C(=O)N1)C(N)=O [TN14003, H-Arg-Arg-Nal-Cys-Tyr-Cit-Lys-DLys-Pro-Tyr-Arg-Cit-Cys-Arg-NH2] (H-RR[2Nal]CY[Cit]K[dK]PYR[Cit]CR-NH2; disulfide 4-13 (inferred))	lowered cytotoxicity	>166000	> 100	0.0006	–	–	–
NCCCC[C@@H]1NC(=O)[C@H](CCCN=C(N)N)NC(=O)[C@H](Cc2ccc(O)cc2)NC(=O)[C@@H](NC(=O)[C@H](Cc2ccc3ccccc3c2)NC(=O)[C@H](CCCN=C(N)N)NC(=O)[C@@H](N)CCCN=C(N)N)CSSC[C@@H](C(=O)N[C@@H](CCCN=C(N)N)C(=O)O)NC(=O)[C@H](CCCNC(N)=O)NC(=O)[C@H](CCCNC(N)=O)NC(=O)[C@H](Cc2ccc(O)cc2)NC(=O)[C@@H]2CCCN2C(=O)[C@@H](CCCCN)NC1=O [TC14006, H-Arg-Arg-Nal-Cys-Tyr-Arg-Lys-DLys-Pro-Tyr-Cit-Cit-Cys-Arg-OH] (H-RR[2Nal]CYRK[dK]PY[Cit][Cit]CR-OH; disulfide 4-13)	–	>5300	> 80	–	20000	310	–
NCCCC[C@H]1NC(=O)[C@H](CCCNC(N)=O)NC(=O)[C@H](CCCN=C(N)N)NC(=O)[C@H](Cc2ccc(O)cc2)NC(=O)[C@@H](NC(=O)[C@H](Cc2ccc3ccccc3c2)NC(=O)[C@H](CCCN=C(N)N)NC(=O)[C@@H](N)CCCN=C(N)N)CSSC[C@@H](C(=O)N[C@@H](CCCN=C(N)N)C(=O)O)NC(=O)[C@H](CCCNC(N)=O)NC(=O)[C@H](CCCN=C(N)N)NC(=O)[C@H](Cc2ccc(O)cc2)NC(=O)[C@@H]2CCCN2C1=O [TC14004, H-Arg-Arg-Nal-Cys-Tyr-Arg-Cit-DLys-Pro-Tyr-Arg-Cit-Cys-Arg-OH] (H-RR[2Nal]CYR[Cit][dK]PYR[Cit]CR-OH; disulfide 4-13)	–	>5000	> 80	–	16000	270	–
C[C@H](N)C(=O)N[C@@H](CCCNC(=N)N)C(=O)N[C@@H](Cc1ccc2ccccc2c1)C(=O)N[C@H]1CSSC[C@@H](C(=O)N[C@@H](CCCNC(=N)N)C(=O)O)NC(=O)[C@H](CCCNC(N)=O)NC(=O)[C@H](CCCNC(=N)N)NC(=O)[C@H](Cc2ccc(O)cc2)NC(=O)[C@@H]2CCCN2C(=O)[C@@H](CCCCN)NC(=O)[C@H](CCCCN)NC(=O)[C@H](CCCNC(=N)N)NC(=O)[C@H](Cc2ccc(O)cc2)NC1=O [TA14001, H-Arg-Arg-Nal-Cys-Tyr-Arg-Lys-DLys-Pro-Tyr-Arg-Cit-Cys-Arg-OH] (H-AR[2Nal]CYRK[dK]PYR[Cit]CR-OH; disulfide 4-13)	–	>750	> 40	0.056	–	–	–
C[C@@H]1NC(=O)[C@H](Cc2ccc(O)cc2)NC(=O)[C@@H]2CCCN2C(=O)[C@@H](CCCCN)NC(=O)[C@H](CCCCN)NC(=O)[C@H](CCCNC(=N)N)NC(=O)[C@H](Cc2ccc(O)cc2)NC(=O)[C@@H](NC(=O)[C@H](Cc2ccc3ccccc3c2)NC(=O)[C@H](CCCNC(=N)N)NC(=O)[C@@H](N)CCCNC(=N)N)CSSC[C@@H](C(=O)N[C@@H](CCCNC(=N)N)C(=O)O)NC(=O)[C@H](CCCNC(N)=O)NC1=O [TA14010, H-Arg-Arg-Nal-Cys-Tyr-Arg-Lys-DLys-Pro-Tyr-Ala-Cit-Cys-Arg-OH] (H-RR[2Nal]CYRK[dK]PYA[Cit]CR-OH; disulfide 4-13)	–	>4800	> 80	0.018	–	–	–
N=C(N)NCCC[C@H](NC(=O)[C@@H]1CSSC[C@H](NC(=O)[C@H](Cc2ccc3ccccc3c2)NC(=O)[C@H](CCCNC(=N)N)NC(=O)[C@@H](N)CCCNC(=N)N)C(=O)N[C@@H](Cc2ccc(O)cc2)C(=O)N[C@@H](CCCNC(N)=O)C(=O)N[C@@H](CCCCN)C(=O)N[C@H](CCCNC(N)=O)C(=O)N2CCC[C@H]2C(=O)N[C@@H](Cc2ccc(O)cc2)C(=O)N[C@@H](CCCNC(=N)N)C(=O)N[C@@H](CCCNC(N)=O)C(=O)N1)C(=O)O [TC14011, H-Arg-Arg-Nal-Cys-Tyr-Cit-Lys-DCit-Pro-Tyr-Arg-Cit-Cys-Arg-OH]	lowered cytotoxicity	>200000	> 100	0.0005	–	–	–
N=C(N)NCCC[C@H](NC(=O)[C@@H]1CSSC[C@H](NC(=O)[C@H](Cc2ccc3ccccc3c2)NC(=O)[C@H](CCCNC(=N)N)NC(=O)[C@@H](N)CCCNC(=N)N)C(=O)N[C@@H](Cc2ccc(O)cc2)C(=O)N[C@@H](CCCNC(N)=O)C(=O)N[C@@H](CCCCN)C(=O)N[C@H](CCCNC(N)=O)C(=O)N2CCC[C@H]2C(=O)N[C@@H](Cc2ccc(O)cc2)C(=O)N[C@@H](CCCNC(=N)N)C(=O)N[C@@H](CCCNC(N)=O)C(=O)N1)C(N)=O [TC14012, H-Arg-Arg-NaI-Cys-Tyr-Cit-Lys-DCit-Pro-Tyr-Arg-Cit-Cys-Arg-NH2]	lowered cytotoxicity	>250000	> 100	0.0004	–	–	higher anti-HIV activity
C[C@@H]1NC(=O)[C@H](CCCN=C(N)N)NC(=O)[C@H](Cc2ccc(O)cc2)NC(=O)[C@@H](NC(=O)[C@H](Cc2ccc3ccccc3c2)NC(=O)[C@H](CCCN=C(N)N)NC(=O)[C@@H](N)CCCN=C(N)N)CSSC[C@@H](C(=O)N[C@@H](CCCN=C(N)N)C(=O)O)NC(=O)[C@H](CCCNC(N)=O)NC(=O)[C@H](CCCN=C(N)N)NC(=O)[C@H](Cc2ccc(O)cc2)NC(=O)[C@@H]2CCCN2C(=O)[C@@H](CCCCN)NC1=O [TA14006, H-Arg-Arg-Nal-Cys-Tyr-Arg-Ala-DLys-Pro-Tyr-Arg-Cit-Cys-Arg-OH] (H-RR[2Nal]CYRA[dK]PYR[Cit]CR-OH; disulfide 4-13)	–	>1800	> 80	–	–	–	–
N=C(N)NCCC[C@H](NC(=O)[C@@H]1CSSC[C@H](NC(=O)[C@H](Cc2ccc3ccccc3c2)NC(=O)[C@H](CCCNC(=N)N)NC(=O)[C@@H](N)CCCNC(=N)N)C(=O)N[C@@H](Cc2ccc(O)cc2)C(=O)N[C@@H](CCCNC(=N)N)C(=O)N[C@@H](CCCCN)C(=O)N[C@H](CCCNC(N)=O)C(=O)N2CCC[C@H]2C(=O)N[C@@H](Cc2ccc(O)cc2)C(=O)N[C@@H](CCCNC(=N)N)C(=O)N[C@@H](CCCNC(N)=O)C(=O)N1)C(N)=O [TN14005, H-Arg-Arg-Nal-Cys-Tyr-Arg-Lys-DCit-Pro-Tyr-Arg-Cit-Cys-Arg-NH2]	cytotoxicity is markedly lowered	>21000	> 100	0.0046	–	–	–
N=C(N)NCCC[C@H](NC(=O)[C@@H]1CSSC[C@H](NC(=O)[C@H](Cc2ccc3ccccc3c2)NC(=O)[C@H](CCCNC(=N)N)NC(=O)[C@@H](N)CCCNC(N)=O)C(=O)N[C@@H](Cc2ccc(O)cc2)C(=O)N[C@@H](CCCNC(=N)N)C(=O)N[C@@H](CCCCN)C(=O)N[C@H](CCCNC(N)=O)C(=O)N2CCC[C@H]2C(=O)N[C@@H](Cc2ccc(O)cc2)C(=O)N[C@@H](CCCNC(=N)N)C(=O)N[C@@H](CCCNC(N)=O)C(=O)N1)C(N)=O [TC14018, H-Cit-Arg-Nal-Cys-Tyr-Arg-Lys-DCit-Pro-Tyr-Arg-Cit-Cys-Arg-NH2]	lowered cytotoxicity	>83000	> 100	0.0012	–	–	–
C[C@H]1NC(=O)[C@H](CCCCN)NC(=O)[C@H](CCCN=C(N)N)NC(=O)[C@H](Cc2ccc(O)cc2)NC(=O)[C@@H](NC(=O)[C@H](Cc2ccc3ccccc3c2)NC(=O)[C@H](CCCN=C(N)N)NC(=O)[C@@H](N)CCCN=C(N)N)CSSC[C@@H](C(=O)N[C@@H](CCCN=C(N)N)C(=O)O)NC(=O)[C@H](CCCNC(N)=O)NC(=O)[C@H](CCCN=C(N)N)NC(=O)[C@H](Cc2ccc(O)cc2)NC(=O)[C@@H]2CCCN2C1=O [TA14007, H-Arg-Arg-Nal-Cys-Tyr-Arg-Lys-DAla-Pro-Tyr-Arg-Cit-Cys-Arg-OH] (H-RR[2Nal]CYRK[dA]PYR[Cit]CR-OH; disulfide 4-13)	–	>5200	> 80	–	–	–	–
